Results reported in patent US11883492B2, “Combination treatment of chemoresistant cancers” (THE REGENTS OF THE UNIVERSITY OF CALIFORNIA, priority 2018, dated 2024).

Legend:
AKT, BMI1 = test: Wnt5a-induced AKT activation and BMI1 expression (immunoblot); assay type: cell-based; conditions: wt-Hs578T
Experimental: FIGS. 8A-8B. The figures show Enhanced BMI1 Expression Induced By Wnt5a Is Dependent On Activation Of AKT. (FIG. 8A), BMI1 mRNA level in Hs578T cells treated with Wnt5a at 100 ng/ml at indicated time point were examined by quantitative PCR (qPCR). Data shown were the mean expression levels of BMI1 relative to time 0 samples in triplicate and normalized with respect to GAPDH. Error bars indicate SEM. (FIG. 8B), Hs578T cells were cultured in serum-free medium, pre-treated with or without MK-2206 for 3 hours, and then stimulated with or without Wnt5a at 100 ng/ml for 6 hours. BMI1, pAKT and AKT were examined on these samples via immunoblot analyses. Numbers below the row for AKT provide the ratios of band densities of pAKT to AKT that were normalized to that of samples treated for 0 minutes with Wnt5a. β-Actin served as protein-loading control. Numbers below the row for BMI1 provide the ratios of band densities of BMI1 to β-Actin, normalized with respect to that of samples treated for 0 minutes with Wnt5a.
Immunoblot analyses. Cells used for examination for proteins via immunoblot analysis were treated with control antibody or cirmtuzumab (50 μg/ml) for overnight and then were cultured in medium supplemented with or without recombinant Wnt5a (100 ng/ml). […] The protein concentration was determined using a bicinchoninic acid protein assay (Pierce). […]

tumor cells from PDX4 = test: Cytotoxicity of paclitaxel on PDX tumor cells in vitro after cirmtuzumab or hIgG; assay type: cell-based; conditions: Homo sapiens
Experimental: FIG. 10. […] Single cell suspension of PDX4 or PDX5 samples were treated with cirmtuzumab or control antibody with or without increasing concentration of paclitaxel for 24 hours. Data are shown as the mean (±SEM) percentage of viable cells of triplicated samples from each of the treatments as determined by flow cytometry analysis. An asterisk indicates P<0.05 and ** indicates P<0.01 as determined by Student's t-Test.
We treated equivalent numbers of tumor cells from PDX4 or PDX5 with cirmtuzumab or control hIgG at 50 μg/ml overnight and then cultured the cells in separate wells in triplicate with increasing concentrations of paclitaxel.

breast cancer PDX = test: Capacity of PDX tumor cells from treated mice to form secondary PDX; assay type: in vivo, Rag2−/−γc−/− mice; conditions: cirmtuzumab 10 mg/kg, paclitaxel 13.4 mg/kg or both (FIG. 5C)
Source text: (§1) Patient-Derived xenografts. Four-to-eight-week-old female Rag2−/−γc−/− mice were used in this study following the care and use of laboratory animal guidelines of National Institutes of Health (NIH). The UC San Diego Medical Experimental Animal Care Committee approved the study protocol. The mice were housed in laminar-flow cabinets under specific pathogen-free conditions and fed ad libitum. The PDX were established using mechanically minced fresh breast cancer specimens. Early passage (P1-P5) of primary tumor tissues from these PDX models were mechanically minced, enzymatically and mechanically dissociated using GentleMACS Dissociator (Miltenyi Biotec), in accordance to the manufacturer's instruction. Erythrocytes were removed via density gradient centrifugation in Percoll™ Plus (GE Healthcare Life Sciences, CC-17-5442-01).
Tumorigenicity Assay. Cells were suspended in Mammary-Epithelial Growth Medium (MEGM), mixed with Matrigel (BD Biosciences, San Diego, CA) at a 1:1 ratio, and then transplanted into the mammary pads of Rag2−/−γc−/− mice. We monitored the mice weekly for the development of tumors. We extirpated the tumor to examine the tumor cells for expression of ROR1 at 10 days after treatment with 13.4 mg/kg paclitaxel via intravenously injection for consecutive 5 days. […] Tumor foci were scored in a blinded fashion by a board-certified pathologist. […]

PDX4 or PDX5 = test: CSC features (ALDH1, spheroids, Matrigel invasion, re-engraftment) of PDX tumors from paclitaxel-treated mice; assay type: in vivo, Rag2−/−γc−/− mice
Experimental: (§2) Tumorigenicity Assay. Cells were suspended in Mammary-Epithelial Growth Medium (MEGM), mixed with Matrigel (BD Biosciences, San Diego, CA) at a 1:1 ratio, and then transplanted into the mammary pads of Rag2−/−γc−/− mice. We monitored the mice weekly for the development of tumors. We extirpated the tumor to examine the tumor cells for expression of ROR1 at 10 days after treatment with 13.4 mg/kg paclitaxel via intravenously injection for consecutive 5 days. To examine for metastases, we harvested the lungs of 6 mice from each treatment group at 42 or 48 days post-transplantation and fixed the tissue with 10%-formalin, prior to embedding in paraffin. Each paraffin block was cut into 200-μm sections. Tumor foci were scored in a blinded fashion by a board-certified pathologist. To test whether cirmtuzumab alone or in combination with paclitaxel impaired engraftment of primary breast tumor cells, 1×10^5 single cells isolated from PDX4 or PDX5 were injected into the mammary pads of 4- to 6-week-old Rag2−/−γc−/− mice. When tumor size reached 300 mm3, 13.4 mg/kg paclitaxel was injected intravenously for consecutive 5 days or/and 10 mg/kg of cirmtuzumab was injected intravenously at day 0, day 7 and then biweekly.
(§3) Flow cytometry analysis. […]

PDX4 [1] = test: Tumorigenicity (re-engraftment) assay with tumor cells of PDX4 removed from treated mice; assay type: in vivo, Rag2−/−γc−/− mice; conditions: for Tumor incidence (mice with tumors/mice implanted): cells isolated from PDX4 of paclitaxel-treated mice (Table 6, FIG. 2E)
Source text: as §1, §2

PDX4 [2] = test: Proportion of ROR1+ cells in residual PDX4 tumors after paclitaxel (flow cytometry); assay type: in vivo, Rag2−/−γc−/− mice; conditions: PDX4, mice treated with paclitaxel 13.4 mg/kg; untreated 4.5%±1.1%
Experimental: as §2, §3

PDX5 [3] = test: Proportion of ROR1+ cells in residual PDX5 tumors after paclitaxel (flow cytometry); assay type: in vivo, Rag2−/−γc−/− mice; conditions: PDX5, mice treated with paclitaxel 13.4 mg/kg; untreated 8.5%±5.8%
Experimental: as §2, §3

PDX5 [4] = test: Tumorigenicity (re-engraftment) assay with tumor cells of PDX5 removed from treated mice; assay type: in vivo, Rag2−/−γc−/− mice; conditions: for Tumor incidence (mice with tumors/mice implanted): cells isolated from PDX5 of paclitaxel-treated mice (Table 6, FIG. 2E)
Source text: as §1, §2

[5] = system: breast cancer PDX (PDX4, PDX5); test: Tumor growth of breast-cancer PDX in mice; assay type: in vivo, Rag2−/−γc−/− mice
Source text: as §1
as §2, with “When tumor size reached 300 mm3, 13.4 mg/kg paclitaxel was injected intravenously for consecutive 5 days or/and 10 mg/kg of cirmtuzumab was injected intravenously at day 0, day 7 and then biweekly.” left out
Control groups were injected with hIgG instead of cirmtuzumab. The tumor volume (v) was determined using the formula v=(length)×(width)2×0.4.

SMILES: NC1(c2ccc(-c3nc4ccn5c(=O)[nH]nc5c4cc3-c3ccccc3)cc2)CCC1 [MK-2206]
- Wnt5a-enhanced expression of BMI1 (AKT, BMI1): inhibited the capacity of Wnt5a to enhance expression of BMI1
- Wnt5a-induced activation of AKT (AKT, BMI1): impaired the capacity of Wnt5a to induce activation of AKT

SMILES: CC(=O)O[C@H]1C(=O)[C@@]2(C)[C@H]([C@H](OC(=O)c3ccccc3)[C@]3(O)C[C@H](OC(=O)[C@H](O)[C@@H](NC(=O)c4ccccc4)c4ccccc4)C(C)=C1C3(C)C)[C@]1(OC(C)=O)CO[C@@H]1C[C@@H]2O [paclitaxel]
- IC50 (tumor cells from PDX4; with cirmtuzumab 50 μg/ml overnight (FIG. 10)): 1 ± 1 µM
- IC50 (tumor cells from PDX4; with non-specific hIgG 50 μg/ml overnight (FIG. 10)): 23 ± 1 µM
- Capacity of tumor cells of PDX that relapsed after therapy to re-engraft immune-deficient mice (breast cancer PDX): readily developed secondary PDX
- Cells able to form spheroids, invade Matrigel or re-engraft in tumors of treated mice (PDX4 or PDX5; versus matched tumors of untreated mice or the original PDX (FIG. 2C-2E)): enriched for cells that could form spheroids, invade Matrigel, or re-engraft
- Proportion of ALDH1-expressing cells in tumors of treated mice (PDX4 or PDX5; versus matched tumors of untreated mice or the original PDX (FIG. 7J)): higher proportions of ALDH1-expressing cells
- Mice that developed PDX/mice engrafted (PDX4 [1]; 1 × 10^4 cells from PDX4 that relapsed after therapy (Table 8, FIG. 5C)): 5/5
- Mice that developed PDX/mice engrafted (PDX4 [1]; 1 × 10^5 cells from PDX4 that relapsed after therapy (Table 8, FIG. 5C)): 5/5
- Tumor incidence (mice with tumors/mice implanted) (PDX4 [1]; 10^3 cells re-implanted): 4/5
- Tumor incidence (mice with tumors/mice implanted) (PDX4 [1]; 10^4 cells re-implanted): 5/5
- Frequency of Tumorigenic Cell (PDX4 [1]; PDX4 from paclitaxel-treated mice, ELDA software (Table 6)): 1/622
- Proportion of ROR1+ cells in residual tumors (PDX4 [2]): 61.7%±7.0%
- Proportion of ROR1+ cells in residual tumors (PDX5 [3]): 56.4%±6.4%
- Mice that developed PDX/mice engrafted (PDX5 [4]; 1 × 10^4 cells from PDX5 that relapsed after therapy (Table 8, FIG. 5C)): 3/3
- Mice that developed PDX/mice engrafted (PDX5 [4]; 1 × 10^5 cells from PDX5 that relapsed after therapy (Table 8, FIG. 5C)): 4/5
- Tumor incidence (mice with tumors/mice implanted) (PDX5 [4]; 10^3 cells re-implanted): 4/5
- Tumor incidence (mice with tumors/mice implanted) (PDX5 [4]; 10^4 cells re-implanted): 5/5
- Frequency of Tumorigenic Cell (PDX5 [4]; PDX5 from paclitaxel-treated mice, ELDA software (Table 6)): 1/622
- Tumor response of secondary PDX ([5]; 13.4 mg/kg for five consecutive days when PDX reached 300 mm^3 (FIG. 2A)): tumor regression
- Tumor growth / tumor volumes in PDX4- or PDX5-bearing mice ([5]; cirmtuzumab 10 mg/kg, paclitaxel 13.4 mg/kg or the combination (FIG. 5A)): inhibited tumor growth relative to that of control-treated animals
- Tumor regrowth after therapy ([5]; tumors derived from PDX with high proportions of ROR1+ cells (e.g. PDX4 or PDX5), 13.4 mg/kg for five days): re-grew shortly after therapy
